Like-named read-outs stand apart in the source and are kept apart here.
Experiments:
Assay in all cases: Kinase inhibitory activity profiling of RI-962@10 µM (406 kinases, Eurofins)
Format in all cases: biochemical
[1] = target: panel of human kinases (kinase named in endpoint) (Homo sapiens, UniProt O15146); conditions: 10 µM; read-out: Activity (%), MuSK(h)
Procedure, shortened: (§1)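 Radiometric filter-binding kinase assays: enzyme preincubated 15 min with compound in 8 mM MOPS pH 7.0, 0.2 mM EDTA, 250 μM peptide substrate, 10 mM magnesium acetate, 10 μM [γ-33P]-ATP. Reaction started with Mg/ATP, run 40 min at room temperature, stopped with phosphoric acid; 33P incorporation read by scintillation counting. Other kinases by similar protocols.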

[2] = target: panel of human kinases (kinase named in endpoint) (Homo sapiens, UniProt O75116); conditions: 10 µM; read-out: Activity (%), ROCK-II(h)
Procedure, shortened: as §1

[3] = target: panel of human kinases (kinase named in endpoint) (Homo sapiens, UniProt O75676); conditions: 10 µM; read-out: Activity (%), MSK2(h)
Procedure, shortened: as §1

[4] = target: panel of human kinases (kinase named in endpoint) (Homo sapiens, UniProt O75914); conditions: 10 µM; read-out: Activity (%), PAK3(h)
Procedure, shortened: as §1

[5] = target: panel of human kinases (kinase named in endpoint) (Homo sapiens, UniProt P06241); conditions: 10 µM; read-out: Activity (%), Fyn(h)
Procedure, shortened: as §1

[6] = target: panel of human kinases (kinase named in endpoint) (Homo sapiens, UniProt P10721, V654A); conditions: 10 µM; read-out: Activity (%), cKit(V654A)(h)
Procedure, shortened: as §1

[7] = target: panel of human kinases (kinase named in endpoint) (Homo sapiens, UniProt P11802); conditions: 10 µM; read-out: Activity (%), CDK4/cyclinD3(h)
Procedure, shortened: as §1

[8] = target: panel of human kinases (kinase named in endpoint) (Homo sapiens, UniProt P12931); conditions: 10 µM
Procedure, shortened: as §1

[9] = target: panel of human kinases (kinase named in endpoint) (Homo sapiens, UniProt P27448); conditions: 10 µM; read-out: Activity (%), MARK3(h)
Procedure, shortened: as §1

[10] = target: panel of human kinases (kinase named in endpoint) (Homo sapiens, UniProt P41743); conditions: 10 µM; read-out: Activity (%), PKCι(h)
Procedure, shortened: as §1

[11] = target: panel of human kinases (kinase named in endpoint) (Homo sapiens, UniProt P42338); conditions: 10 µM; read-out: Activity (%), PI3 Kinase (p110b/p85a)(h)
Procedure, shortened: as §1

[12] = target: panel of human kinases (kinase named in endpoint) (Homo sapiens, UniProt P45983); conditions: 10 µM; read-out: Activity (%), JNK1α1(h)
Procedure, shortened: as §1

[13] = target: panel of human kinases (kinase named in endpoint) (Homo sapiens, UniProt Q05397); conditions: 10 µM; read-out: Activity (%), FAK(h)
Procedure, shortened: as §1

[14] = target: panel of human kinases (kinase named in endpoint) (Homo sapiens, UniProt Q06418); conditions: 10 µM; read-out: Activity (%), Rse(h)
Procedure, shortened: as §1

[15] = target: panel of human kinases (kinase named in endpoint) (Homo sapiens, UniProt Q08345); conditions: 10 µM; read-out: Activity (%), DDR1(h)
Procedure, shortened: as §1

[16] = target: panel of human kinases (kinase named in endpoint) (Homo sapiens, UniProt Q12866); conditions: 10 µM; read-out: Activity (%), Mer(h)
Procedure, shortened: as §1

[17] = target: panel of human kinases (kinase named in endpoint) (Homo sapiens, UniProt Q13873); conditions: 10 µM; read-out: Activity (%), BMPR2(h)
Procedure, shortened: as §1

[18] = target: panel of human kinases (kinase named in endpoint) (Homo sapiens, UniProt Q15831); conditions: 10 µM; read-out: Activity (%), LKB1(h)
Procedure, shortened: as §1

[19] = target: panel of human kinases (kinase named in endpoint) (Homo sapiens, UniProt Q5VT25); conditions: 10 µM; read-out: Activity (%), MRCKα(h)
Procedure, shortened: as §1

[20] = target: panel of human kinases (kinase named in endpoint) (Homo sapiens, UniProt Q8TD19); conditions: 10 µM; read-out: Activity (%), NEK9(h)
Procedure, shortened: as §1

[21] = target: panel of human kinases (kinase named in endpoint) (Homo sapiens, UniProt Q96GD4); conditions: 10 µM; read-out: Activity (%), Aurora-B(h)
Procedure, shortened: as §1

[22] = target: panel of human kinases (kinase named in endpoint) (Homo sapiens, UniProt Q96RG2); conditions: 10 µM; read-out: Activity (%), PASK(h)
Procedure, shortened: as §1

[23] = target: panel of human kinases (kinase named in endpoint) (Homo sapiens, UniProt Q9BZL6); conditions: 10 µM; read-out: Activity (%), PKD2(h)
Procedure, shortened: as §1

[24] = target: panel of human kinases (kinase named in endpoint) (Homo sapiens, UniProt Q9HBH9); conditions: 10 µM; read-out: Activity (%), Mnk2(h)
Procedure, shortened: as §1

[25] = target: panel of human kinases (kinase named in endpoint) (Homo sapiens, UniProt Q9Y2U5); conditions: 10 µM; read-out: Activity (%), MEKK2(h)
Procedure, shortened: as §1

panel of human kinases (kinase named in endpoint) (Homo sapiens, UniProt P12931), sequence (P12931 whole entry): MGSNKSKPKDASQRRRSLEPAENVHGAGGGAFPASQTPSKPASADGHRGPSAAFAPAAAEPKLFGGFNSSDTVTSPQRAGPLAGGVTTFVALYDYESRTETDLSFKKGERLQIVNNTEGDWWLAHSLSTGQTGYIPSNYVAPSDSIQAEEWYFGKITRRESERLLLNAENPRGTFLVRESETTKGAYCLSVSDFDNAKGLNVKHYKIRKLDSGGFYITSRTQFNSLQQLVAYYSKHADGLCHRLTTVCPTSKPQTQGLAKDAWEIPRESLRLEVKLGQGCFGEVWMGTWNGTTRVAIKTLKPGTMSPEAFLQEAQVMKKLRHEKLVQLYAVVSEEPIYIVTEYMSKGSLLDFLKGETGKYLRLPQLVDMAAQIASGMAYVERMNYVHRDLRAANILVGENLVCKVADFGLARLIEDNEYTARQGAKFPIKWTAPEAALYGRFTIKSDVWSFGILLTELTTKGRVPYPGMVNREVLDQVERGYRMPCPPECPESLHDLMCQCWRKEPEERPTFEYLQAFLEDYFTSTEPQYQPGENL
panel of human kinases (kinase named in endpoint) (Homo sapiens, UniProt O75676), sequence (O75676 whole entry): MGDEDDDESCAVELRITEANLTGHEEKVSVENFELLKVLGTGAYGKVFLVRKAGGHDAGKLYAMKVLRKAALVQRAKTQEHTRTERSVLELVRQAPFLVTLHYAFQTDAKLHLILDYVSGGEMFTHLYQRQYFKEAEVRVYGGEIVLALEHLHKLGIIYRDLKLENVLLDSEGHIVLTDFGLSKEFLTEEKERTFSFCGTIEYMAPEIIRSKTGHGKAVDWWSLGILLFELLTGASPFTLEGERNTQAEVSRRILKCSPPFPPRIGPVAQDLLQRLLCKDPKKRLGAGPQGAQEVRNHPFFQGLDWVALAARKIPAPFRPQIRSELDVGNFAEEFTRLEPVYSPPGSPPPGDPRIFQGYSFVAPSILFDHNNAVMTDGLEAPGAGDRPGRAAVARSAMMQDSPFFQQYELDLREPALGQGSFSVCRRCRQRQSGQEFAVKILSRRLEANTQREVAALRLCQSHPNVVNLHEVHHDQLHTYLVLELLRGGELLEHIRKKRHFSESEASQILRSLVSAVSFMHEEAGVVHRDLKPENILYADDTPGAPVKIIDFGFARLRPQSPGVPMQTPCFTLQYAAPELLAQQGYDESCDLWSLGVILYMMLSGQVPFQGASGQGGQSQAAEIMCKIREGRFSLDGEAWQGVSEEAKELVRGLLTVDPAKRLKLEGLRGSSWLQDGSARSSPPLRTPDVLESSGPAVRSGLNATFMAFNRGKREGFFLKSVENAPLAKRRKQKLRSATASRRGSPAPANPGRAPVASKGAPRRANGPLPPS
panel of human kinases (kinase named in endpoint) (Homo sapiens, UniProt Q12866), sequence (Q12866 21-999): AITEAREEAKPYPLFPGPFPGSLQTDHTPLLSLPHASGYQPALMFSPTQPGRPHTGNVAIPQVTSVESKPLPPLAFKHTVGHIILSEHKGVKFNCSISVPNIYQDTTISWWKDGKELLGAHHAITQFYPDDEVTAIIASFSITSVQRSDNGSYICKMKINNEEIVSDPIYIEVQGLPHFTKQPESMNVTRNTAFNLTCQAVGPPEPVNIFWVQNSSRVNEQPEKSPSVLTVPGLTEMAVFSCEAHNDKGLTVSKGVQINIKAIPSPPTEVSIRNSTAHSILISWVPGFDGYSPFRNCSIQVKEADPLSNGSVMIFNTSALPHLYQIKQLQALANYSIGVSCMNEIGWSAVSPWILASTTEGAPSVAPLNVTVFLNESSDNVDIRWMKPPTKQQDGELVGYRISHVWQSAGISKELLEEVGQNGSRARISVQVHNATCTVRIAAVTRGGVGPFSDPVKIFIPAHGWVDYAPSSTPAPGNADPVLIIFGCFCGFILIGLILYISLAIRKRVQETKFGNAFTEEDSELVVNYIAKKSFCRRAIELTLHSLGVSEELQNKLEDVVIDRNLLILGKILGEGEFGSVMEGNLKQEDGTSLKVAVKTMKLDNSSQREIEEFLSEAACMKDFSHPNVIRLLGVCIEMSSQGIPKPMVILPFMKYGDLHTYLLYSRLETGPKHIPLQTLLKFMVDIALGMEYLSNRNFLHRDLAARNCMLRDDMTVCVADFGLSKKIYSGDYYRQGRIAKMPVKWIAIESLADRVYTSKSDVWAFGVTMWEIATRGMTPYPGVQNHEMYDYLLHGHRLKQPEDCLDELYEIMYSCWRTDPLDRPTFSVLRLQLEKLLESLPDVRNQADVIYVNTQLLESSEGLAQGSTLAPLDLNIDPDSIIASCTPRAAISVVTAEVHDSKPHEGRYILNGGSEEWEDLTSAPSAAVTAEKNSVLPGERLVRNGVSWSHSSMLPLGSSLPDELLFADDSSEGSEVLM
panel of human kinases (kinase named in endpoint) (Homo sapiens, UniProt Q8TD19), sequence (Q8TD19 whole entry): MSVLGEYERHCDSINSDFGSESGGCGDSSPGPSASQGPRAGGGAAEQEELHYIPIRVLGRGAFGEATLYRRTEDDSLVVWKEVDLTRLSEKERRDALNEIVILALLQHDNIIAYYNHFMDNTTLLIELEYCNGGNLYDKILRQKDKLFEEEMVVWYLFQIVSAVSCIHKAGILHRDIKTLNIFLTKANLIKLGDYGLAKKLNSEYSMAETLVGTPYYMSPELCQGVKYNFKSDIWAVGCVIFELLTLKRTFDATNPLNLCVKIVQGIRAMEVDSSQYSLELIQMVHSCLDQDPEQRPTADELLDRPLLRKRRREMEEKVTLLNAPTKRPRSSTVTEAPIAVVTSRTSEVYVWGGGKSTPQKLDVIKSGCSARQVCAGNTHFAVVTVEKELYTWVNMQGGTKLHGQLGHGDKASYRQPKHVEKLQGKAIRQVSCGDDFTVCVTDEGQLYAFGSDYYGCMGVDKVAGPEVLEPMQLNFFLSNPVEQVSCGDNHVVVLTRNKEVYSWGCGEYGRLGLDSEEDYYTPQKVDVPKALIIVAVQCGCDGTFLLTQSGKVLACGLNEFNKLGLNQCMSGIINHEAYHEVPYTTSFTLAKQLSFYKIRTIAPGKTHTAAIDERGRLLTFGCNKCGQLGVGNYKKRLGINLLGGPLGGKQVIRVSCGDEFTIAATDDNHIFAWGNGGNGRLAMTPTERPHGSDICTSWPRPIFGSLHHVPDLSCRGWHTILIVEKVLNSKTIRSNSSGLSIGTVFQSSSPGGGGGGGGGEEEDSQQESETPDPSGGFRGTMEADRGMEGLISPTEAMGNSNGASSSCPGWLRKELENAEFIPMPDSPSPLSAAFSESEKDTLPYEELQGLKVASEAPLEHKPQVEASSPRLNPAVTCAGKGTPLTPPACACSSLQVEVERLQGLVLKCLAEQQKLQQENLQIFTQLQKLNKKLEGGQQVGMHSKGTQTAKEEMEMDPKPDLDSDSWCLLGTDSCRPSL
panel of human kinases (kinase named in endpoint) (Homo sapiens, UniProt O75914), sequence (O75914 whole entry): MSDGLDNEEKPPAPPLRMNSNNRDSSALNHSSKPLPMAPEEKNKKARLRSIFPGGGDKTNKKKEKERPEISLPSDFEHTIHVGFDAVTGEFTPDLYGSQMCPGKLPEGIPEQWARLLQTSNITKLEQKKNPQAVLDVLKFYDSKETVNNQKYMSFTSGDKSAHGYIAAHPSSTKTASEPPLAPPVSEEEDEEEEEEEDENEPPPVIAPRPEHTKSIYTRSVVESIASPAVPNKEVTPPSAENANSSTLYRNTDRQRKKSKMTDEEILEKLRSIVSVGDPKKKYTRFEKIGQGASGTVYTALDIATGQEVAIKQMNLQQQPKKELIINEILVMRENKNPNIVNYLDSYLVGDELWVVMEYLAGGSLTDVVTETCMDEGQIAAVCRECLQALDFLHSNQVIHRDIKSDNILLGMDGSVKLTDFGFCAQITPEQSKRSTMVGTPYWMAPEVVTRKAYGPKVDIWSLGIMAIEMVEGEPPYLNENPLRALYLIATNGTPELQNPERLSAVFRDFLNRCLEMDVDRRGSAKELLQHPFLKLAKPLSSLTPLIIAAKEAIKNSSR
panel of human kinases (kinase named in endpoint) (Homo sapiens, UniProt Q13873), sequence (Q13873 27-1038): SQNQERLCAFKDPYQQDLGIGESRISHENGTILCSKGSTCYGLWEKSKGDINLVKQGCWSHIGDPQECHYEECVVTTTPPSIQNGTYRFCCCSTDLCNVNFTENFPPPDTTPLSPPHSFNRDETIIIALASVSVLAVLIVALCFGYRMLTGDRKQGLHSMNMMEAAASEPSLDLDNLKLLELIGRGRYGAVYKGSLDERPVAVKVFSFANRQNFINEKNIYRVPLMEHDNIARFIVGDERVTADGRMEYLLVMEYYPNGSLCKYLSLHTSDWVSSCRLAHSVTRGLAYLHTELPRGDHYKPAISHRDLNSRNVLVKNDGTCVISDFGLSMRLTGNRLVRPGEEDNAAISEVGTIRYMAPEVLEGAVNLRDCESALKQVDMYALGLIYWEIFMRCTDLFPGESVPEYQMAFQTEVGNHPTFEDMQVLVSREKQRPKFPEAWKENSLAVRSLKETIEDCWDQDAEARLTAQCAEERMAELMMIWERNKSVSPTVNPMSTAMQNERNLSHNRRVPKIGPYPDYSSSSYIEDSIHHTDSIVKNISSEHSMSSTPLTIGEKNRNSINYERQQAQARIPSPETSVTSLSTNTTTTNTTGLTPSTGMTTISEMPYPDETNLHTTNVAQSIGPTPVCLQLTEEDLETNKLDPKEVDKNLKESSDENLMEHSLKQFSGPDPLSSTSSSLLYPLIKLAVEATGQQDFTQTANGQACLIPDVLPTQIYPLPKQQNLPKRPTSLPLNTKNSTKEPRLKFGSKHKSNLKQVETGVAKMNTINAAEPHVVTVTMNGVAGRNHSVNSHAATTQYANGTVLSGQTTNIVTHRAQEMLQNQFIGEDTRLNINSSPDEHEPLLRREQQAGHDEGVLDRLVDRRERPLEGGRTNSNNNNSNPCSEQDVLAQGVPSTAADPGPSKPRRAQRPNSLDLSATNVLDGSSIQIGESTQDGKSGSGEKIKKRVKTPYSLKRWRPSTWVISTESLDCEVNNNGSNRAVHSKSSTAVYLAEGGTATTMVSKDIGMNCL

`CC(C)C(=O)Nc1nc2cc(-c3ccc4c(c3)c(C(=O)NC(C)c3ccccc3)cn4C)ccn2n1` (centres unmarked) [RI-962] was tested. Which activity at 10 µM [1] did it give?
The activity at 10 µM was 52%.

And the activity at 10 µM [2]?
The activity at 10 µM was 90%.

What about the activity at 10 µM [3] of the same compound?
The activity at 10 µM was 94%.

And the activity at 10 µM [4]?
The activity at 10 µM was 77%.

What about the activity at 10 µM [5] of the same compound?
The activity at 10 µM was 107%.

And the activity at 10 µM [6]?
Its activity at 10 µM is 85%.

And the activity at 10 µM [7]?
Its activity at 10 µM is 75%.

What about the activity at 10 µM ([8]; read-out: Activity (%), Src(1-530)(h)) of the same compound?
Its activity at 10 µM is 95%.

What about the activity at 10 µM ([8]; read-out: Activity (%), cSRC(h)) of the same compound?
Its activity at 10 µM is 100%.

And the activity at 10 µM [9]?
The activity at 10 µM was 84%.

And the activity at 10 µM [10]?
The activity at 10 µM was 97%.

What about the activity at 10 µM [11] of the same compound?
The activity at 10 µM was 88%.

What about the activity at 10 µM [12] of the same compound?
Its activity at 10 µM is 99%.

And the activity at 10 µM [13]?
The activity at 10 µM was 108%.

What about the activity at 10 µM [14] of the same compound?
The activity at 10 µM was 108%.

What about the activity at 10 µM [15] of the same compound?
Its activity at 10 µM is 104%.

And the activity at 10 µM [16]?
Its activity at 10 µM is 91%.

What about the activity at 10 µM [17] of the same compound?
Its activity at 10 µM is 105%.

What about the activity at 10 µM [18] of the same compound?
Its activity at 10 µM is 105%.

And the activity at 10 µM [19]?
The activity at 10 µM was 94%.

And the activity at 10 µM [20]?
Its activity at 10 µM is 85%.

And the activity at 10 µM [21]?
Its activity at 10 µM is 119%.

What about the activity at 10 µM [22] of the same compound?
The activity at 10 µM was 71%.

What about the activity at 10 µM [23] of the same compound?
Its activity at 10 µM is 98%.

And the activity at 10 µM [24]?
The activity at 10 µM was 92%.

And the activity at 10 µM [25]?
Its activity at 10 µM is 98%.

Source: paper PMC9653409, “Generative deep learning enables the discovery of a potent and selective RIPK1 inhibitor” (Nature Communications, 2022)
